The source of these data is patent US10604535B2, “Compounds, compositions and methods” (Denali Therapeutics Inc., priority 2016, dated 2020).

The subject of one test is FADD-deficient Jurkat cells. As to the kind of experiment: Cellular necroptosis assay (human TNFα-induced necrosis, CellTiter-Glo). The class given is cell-based. To be noted: Homo sapiens, Jurkat, 48 h, TNFα 10 ng/mL, read-out: Cell IC50.
In the case of `O=C(N[C@H]1COc2ccccc2-n2ccnc21)c1nnc(Cc2ccccc2)[nH]1` [Example 68A, (R)-5-benzyl-N-(4,5-dihydrobenzo[b]imidazo[1,2-d][1,4]oxazepin-4-yl)-4H-1,2,4-triazole-3-carboxamide], the half-maximal inhibitory concentration (IC50) is 0.0001 to 1 µM.
Consider `CN1C(=O)[C@@H](NC(=O)c2cc(Cc3ccccc3)[nH]n2)[C@H]2C[C@H]2c2cccnc21` [Example 80A, 5-benzyl-N-((1aS,2S,8bR)-4-methyl-3-oxo-1,1a,2,3,4,8b-hexahydrocyclopropa[d]pyrido[2,3-b]azepin-2-yl)-1H-pyrazole-3-carboxamide], for which the IC50 lay within 0.0001 to 1 µM.
On the same count and under the same terms, as for `CN1C(=O)[C@@H](NC(=O)c2nnc(Cc3ccccc3)[nH]2)C[C@H](F)c2ccccc21` (mixture of isomers) [Example 12, 5-benzyl-N-((3S,5S)-5-fluoro-1-methyl-2-oxo-2,3,4,5-tetrahydro-1H-benzo[b]azepin-3-yl)-4H-1,2,4-triazole-3-carboxamide and 5-benzyl-N-((3R,5R)-5-fluoro-1-methyl-2-oxo-2,3,4,5-tetrahydro-1H-benzo[b]azepin-3-yl)-4H-1,2,4-triazole-3-carboxamide], the figure is 0.0001 to 1 µM; as for `CN1C(=O)[C@@H](NC(=O)c2ncc(C3(c4ccccc4)CC3)[nH]2)COc2ccccc21` [Example 78, (S)—N-(5-methyl-4-oxo-2,3,4,5-tetrahydrobenzo[b][1,4]oxazepin-3-yl)-5-(1-phenylcyclopropyl)-1H-imidazole-2-carboxamide], 0.0001 to 1 µM; as for `O=C(N[C@@H]1C(=O)Nc2c(F)cc(F)cc2[C@@H]2C[C@H]12)c1cn(Cc2ccccc2)nn1` [Example 90B, 1-benzyl-N-((1aS,2S,8bR)-5,7-difluoro-3-oxo-1,1a,2,3,4,8b-hexahydrobenzo[b]cyclopropa[d]azepin-2-yl)-1H-1,2,3-triazole-4-carboxamide], 0.0001 to 1 µM.
Same read-out and setting: next, `CN1C(=O)[C@@H](NC(=O)c2nc3cccc(-c4ccccc4F)c3s2)COc2ccccc21` [Example 79, (S)-7-(2-fluorophenyl)-N-(5-methyl-4-oxo-2,3,4,5-tetrahydrobenzo[b][1,4]oxazepin-3-yl)benzo[d]thiazole-2-carboxamide]: 0.0001 to 1 µM; `CN1C(=O)[C@H](NC(=O)c2nnc(Cc3ccccc3)[nH]2)C[C@@H](F)c2ccccc21` (mixture of isomers) [Example 12B, 5-benzyl-N-((3S,5S)-5-fluoro-1-methyl-2-oxo-2,3,4,5-tetrahydro-1H-benzo[b]azepin-3-yl)-4H-1,2,4-triazole-3-carboxamide and 5-benzyl-N-((3R,5R)-5-fluoro-1-methyl-2-oxo-2,3,4,5-tetrahydro-1H-benzo[b]azepin-3-yl)-4H-1,2,4-triazole-3-carboxamide]: 0.0001 to 1 µM.
Still for that read-out and setting: as for `CN1C(=O)[C@@H](NC(=O)c2nn(Cc3ccccc3)cc2F)[C@H]2C[C@H]2c2cccnc21` [Example 82A, 1-benzyl-4-fluoro-N-((1aS,2S,8bR)-4-methyl-3-oxo-1,1a,2,3,4,8b-hexahydrocyclopropa[d]pyrido[2,3-b]azepin-2-yl)-1H-pyrazole-3-carboxamide], the figure is 0.0001 to 1 µM.
Turning to `CN1C(=O)[C@H](NC(=O)c2nnc(Cc3ccccc3)[nH]2)C[C@H](F)c2ccccc21` (mixture of isomers) [Example 11B, 5-benzyl-N-((3S,5R)-5-fluoro-1-methyl-2-oxo-2,3,4,5-tetrahydro-1H-benzo[b]azepin-3-yl)-4H-1,2,4-triazole-3-carboxamide and 5-benzyl-N-((3R,5S)-5-fluoro-1-methyl-2-oxo-2,3,4,5-tetrahydro-1H-benzo[b]azepin-3-yl)-4H-1,2,4-triazole-3-carboxamide], the IC50 is 0.0001 to 1 µM.
On the same count and under the same terms, next, `CN1C(=O)[C@@H](NC(=O)c2nc3cccc(-c4ccccc4)c3s2)COc2ccccc21` [Example 84, (S)—N-(5-methyl-4-oxo-2,3,4,5-tetrahydrobenzo[b][1,4]oxazepin-3-yl)-7-phenylbenzo[d]thiazole-2-carboxamide]: 0.0001 to 1 µM; `O=C(N[C@H]1CCc2ccccc2-n2cnnc21)c1cc(Cc2ccccc2)on1` [Example 71A, (S)-5-benzyl-N-(5,6-dihydro-4H-benzo[f][11,2,4]triazolo[4,3-a]azepin-4-yl)isoxazole-3-carboxamide]: 0.0001 to 1 µM; `CN1C(=O)[C@@H](NC(=O)c2nnc(Cc3ccccc3)o2)CCc2ccccc21` [Example 225, (S)-5-benzyl-N-(1-methyl-2-oxo-2,3,4,5-tetrahydro-1H-benzo[b]azepin-3-yl)-1,3,4-oxadiazole-2-carboxamide]: 0.0001 to 1 µM.
Same read-out and setting: next, `CN1C(=O)[C@@H](NC(=O)c2ncc(Cc3ccccc3)s2)COc2ccccc21` [Example 5, (S)-5-benzyl-N-(5-methyl-4-oxo-2,3,4,5-tetrahydrobenzo[b][1,4]oxazepin-3-yl)thiazole-2-carboxamide]: 0.0001 to 1 µM; `CN1C(=O)[C@@H](NC(=O)c2nnc(Cc3ccccc3)[nH]2)C[C@@H](F)c2ccccc21` (mixture of isomers) [Example 11, 5-benzyl-N-((3S,5R)-5-fluoro-1-methyl-2-oxo-2,3,4,5-tetrahydro-1H-benzo[b]azepin-3-yl)-4H-1,2,4-triazole-3-carboxamide and 5-benzyl-N-((3R,5S)-5-fluoro-1-methyl-2-oxo-2,3,4,5-tetrahydro-1H-benzo[b]azepin-3-yl)-4H-1,2,4-triazole-3-carboxamide]: 0.0001 to 1 µM; `C[C@H]1Oc2cccnc2N(C)C(=O)[C@H]1NC(=O)c1nnc(C(F)(F)c2ccccc2)o1` [Example 221, 5-(difluoro(phenyl)methyl)-N-((2R,3S)-2,5-dimethyl-4-oxo-2,3,4,5-tetrahydropyrido[3,2-b][1,4]oxazepin-3-yl)-1,3,4-oxadiazole-2-carboxamide]: 0.0001 to 1 µM.
On the same count and under the same terms, as for `C[C@H]1Oc2cccnc2N(C)C(=O)[C@H]1NC(=O)c1nnc(Cc2ccccc2)s1` [Example 217, 5-benzyl-N-((2R,3S)-2,5-dimethyl-4-oxo-2,3,4,5-tetrahydropyrido[3,2-b][1,4]oxazepin-3-yl)-1,3,4-thiadiazole-2-carboxamide], the figure is 0.0001 to 1 µM.
In the case of `CN1C(=O)[C@@H](NC(=O)c2nn(Cc3ccccn3)cc2F)COc2cccnc21` [Example 74, (S)-4-fluoro-N-(5-methyl-4-oxo-2,3,4,5-tetrahydropyrido[3,2-b][1,4]oxazepin-3-yl)-1-(pyridin-2-ylmethyl)-1H-pyrazole-3-carboxamide], the IC50 lay in the range of 0.0001 to 1 µM.
Still for that read-out and setting: as for `[2H]C([2H])([2H])N1C(=O)[C@@H](NC(=O)c2nn(Cc3ccccc3)cc2F)COc2cccnc21` [Example 175, (S)-1-benzyl-4-fluoro-N-(5-trideuteriomethyl-4-oxo-2,3,4,5-tetrahydropyrido[3,2-b][1,4]oxazepin-3-yl)-1H-pyrazole-3-carboxamide], the figure is 0.0001 to 1 µM; as for `CN1C(=O)[C@@H](NC(=O)c2nn(Cc3ccccc3)cc2F)COc2cccnc21` [Example 76, (S)-1-benzyl-4-fluoro-N-(5-methyl-4-oxo-2,3,4,5-tetrahydropyrido[3,2-b][1,4]oxazepin-3-yl)-1H-pyrazole-3-carboxamide], 0.0001 to 1 µM; as for `O=C(N[C@H]1COc2cccnc2NC1=O)c1cc(C2(c3ccccc3)CC2)on1` [Example 62, (S)—N-(4-oxo-2,3,4,5-tetrahydropyrido[3,2-b][1,4]oxazepin-3-yl)-5-(1-phenylcyclopropyl)isoxazole-3-carboxamide], 0.0001 to 1 µM.
The same measure, in the same setting: as for `CN1C(=O)[C@@H](NC(=O)c2cnc(C3(c4ccccc4)CC3)[nH]2)COc2ccccc21` [Example 88, (S)—N-(5-methyl-4-oxo-2,3,4,5-tetrahydrobenzo[b][1,4]oxazepin-3-yl)-2-(1-phenylcyclopropyl)-1H-imidazole-5-carboxamide], the figure is 1 to 10 µM; as for `CN1C(=O)[C@@H](NC(=O)c2nn(Cc3ccc(Cl)cn3)cc2F)COc2ccccc21` [Example 216, (S)-1-((5-chloropyridin-2-yl)methyl)-4-fluoro-N-(5-methyl-4-oxo-2,3,4,5-tetrahydrobenzo[b][1,4]oxazepin-3-yl)-1H-pyrazole-3-carboxamide], 0.0001 to 1 µM; as for `CN1C(=O)[C@@H](NC(=O)c2ncc(C3(c4ccccc4)CC3)s2)COc2cccnc21` [Example 63, (S)—N-(5-methyl-4-oxo-2,3,4,5-tetrahydropyrido[3,2-b][1,4]oxazepin-3-yl)-5-(1-phenylcyclopropyl)thiazole-2-carboxamide], 0.0001 to 1 µM.
On the same count and under the same terms, as for `CN1C(=O)[C@@H](NC(=O)c2nnc(Cc3ccccc3)s2)COc2cccnc21` [Example 85, (S)-5-benzyl-N-(5-methyl-4-oxo-2,3,4,5-tetrahydropyrido[3,2-b][1,4]oxazepin-3-yl)-1,3,4-thiadiazole-2-carboxamide], the figure is 0.0001 to 1 µM.

Still in this test, the particulars now being: TNFα 10 ng/mL, 48 h; read-out: Cell IC50.
In the case of `CN1C(=O)[C@@H](NC(=O)c2nnc(Cc3ccccc3)[nH]2)C[C@H](F)c2ccccc21` (mixture of isomers) [Example 12A, 5-benzyl-N-((3S,5S)-5-fluoro-1-methyl-2-oxo-2,3,4,5-tetrahydro-1H-benzo[b]azepin-3-yl)-4H-1,2,4-triazole-3-carboxamide and 5-benzyl-N-((3R,5R)-5-fluoro-1-methyl-2-oxo-2,3,4,5-tetrahydro-1H-benzo[b]azepin-3-yl)-4H-1,2,4-triazole-3-carboxamide], the IC50 was 0.0001 to 1 µM.
The same measure, in the same setting: next, `CN1C(=O)[C@@H](NC(=O)c2nnc(Cc3ccccc3)[nH]2)C[C@@H](F)c2ccccc21` (mixture of isomers) [Example 11A, 5-benzyl-N-((3S,5R)-5-fluoro-1-methyl-2-oxo-2,3,4,5-tetrahydro-1H-benzo[b]azepin-3-yl)-4H-1,2,4-triazole-3-carboxamide and 5-benzyl-N-((3R,5S)-5-fluoro-1-methyl-2-oxo-2,3,4,5-tetrahydro-1H-benzo[b]azepin-3-yl)-4H-1,2,4-triazole-3-carboxamide]: 0.0001 to 1 µM; `CN1C(=O)[C@@H](NC(=O)c2nnc([C@H]3CCc4ccccc43)[nH]2)COc2cccnc21` [Example 54B, 5-((S)-2,3-dihydro-1H-inden-1-yl)-N—((S)-5-methyl-4-oxo-2,3,4,5-tetrahydropyrido[3,2-b][1,4]oxazepin-3-yl)-4H-1,2,4-triazole-3-carboxamide]: 0.0001 to 1 µM.
